In PubChem BioAssay (NCI):
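Cells were grown in 96-well plates and exposed to each compound for 48 hours at five concentrations; endpoints were interpolated linearly between bracketing concentrations, or set to the highest concentration if not reached. TGI is the concentration that stops growth completely.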

Experiments:
Assay in all cases: NCI tumour cell line growth inhibition, 48 h
[1] = system: TK-10 renal
[2] = system: M14 melanoma
[3] = system: CAKI-1 renal
[4] = system: HOP-92 NSCLC
[5] = system: HOP-62 NSCLC
[6] = system: A498 renal
[7] = system: U251 CNS
[8] = system: OVCAR-4 ovarian
[9] = system: BT-549 breast
[10] = system: MCF7 breast
[11] = system: KM12 colon
[12] = system: DU-145 prostate
[13] = system: HCT-116 colon
[14] = system: HL-60(TB) leukemia
[15] = system: RPMI-8226 leukemia
[16] = system: SNB-75 CNS
[17] = system: SF-295 CNS
[18] = system: SNB-19 CNS
[19] = system: A549 NSCLC
[20] = system: OVCAR-5 ovarian
[21] = system: SW-620 colon
[22] = system: 786-0 renal
[23] = system: PC-3 prostate
[24] = system: SK-MEL-28 melanoma
[25] = system: MDA-N
[26] = system: SN12C renal
[27] = system: HT29 colon
[28] = system: NCI-H460 lung
[29] = system: HS 578T breast
[30] = system: UO-31 renal
[31] = system: IGROV1 ovarian
[32] = system: NCI-H226 lung
[33] = system: EKVX NSCLC
[34] = system: MDA-MB-231 breast
[35] = system: NCI-H522 lung
[36] = system: SF-539 CNS
[37] = system: HCT-15 colon
[38] = system: SR leukemia
[39] = system: SK-OV-3 ovarian
[40] = system: OVCAR-8 ovarian
[41] = system: LOX IMVI melanoma
[42] = system: UACC-257 melanoma
[43] = system: OVCAR-3 ovarian
[44] = system: COLO 205 colon
[45] = system: SF-268 CNS
[46] = system: T-47D breast
[47] = system: SK-MEL-2 melanoma
[48] = system: NCI/ADR-RES ovarian
[49] = system: SK-MEL-5 melanoma
[50] = system: NCI-H23 lung
[51] = system: RXF 393 renal
[52] = system: MDA-MB-435
[53] = system: K-562 leukemia
[54] = system: ACHN renal
[55] = system: HCC-2998 colon
[56] = system: UACC-62 melanoma
[57] = system: CCRF-CEM leukemia

COC(=O)c1cnc(Cl)c([N+](=O)[O-])c1
TGI [1]: 30.3 µM | TGI [2]: 27 µM | TGI [3]: 25.7 µM | TGI [4]: 4.25 µM | TGI [5]: 36.5 µM | TGI [6]: 40 µM | TGI [7]: 4.23 µM | TGI [8]: 36.6 µM | TGI [9]: 32.3 µM | TGI [10]: 4.34 µM | TGI [11]: 35 µM | TGI [12]: 21.3 µM | TGI [13]: 8.77 µM | TGI [14]: 5.73 µM | TGI [15]: 5.3 µM | TGI [16]: 34.8 µM | TGI [17]: 33.5 µM | TGI [18]: 32.4 µM | TGI [19]: 41.6 µM | TGI [20]: 32 µM | TGI [21]: 4.78 µM | TGI [22]: 11.2 µM | TGI [23]: 22.6 µM | TGI [24]: 36 µM | TGI [25]: 20.1 µM | TGI [26]: 25.8 µM | TGI [27]: 32.6 µM | TGI [28]: 31.5 µM | TGI [29]: 76.4 µM | TGI [30]: 3.55 µM | TGI [31]: 8.1 µM | TGI [32]: 36.5 µM | TGI [33]: 3.28 µM | TGI [34]: 30.1 µM | TGI [35]: 3.28 µM | TGI [36]: 32.1 µM | TGI [37]: 4.21 µM | TGI [38]: 4.24 µM | TGI [39]: 33.8 µM | TGI [40]: 3.95 µM | TGI [41]: 3.68 µM | TGI [42]: 20.3 µM | TGI [43]: 28.7 µM | TGI [44]: 12.2 µM | TGI [45]: 7.6 µM | TGI [46]: 4.68 µM | TGI [47]: 31.5 µM | TGI [48]: 68.3 µM | TGI [49]: 27.2 µM | TGI [50]: 35.2 µM | TGI [51]: 25.1 µM | TGI [52]: 19.4 µM | TGI [53]: 4.8 µM | TGI [54]: 25.1 µM | TGI [55]: 21.5 µM | TGI [56]: 32.1 µM | TGI [57]: 5.1 µM
